The numbers were not newly measured in patent US9370492B2, “Solid pharmaceutical dosage forms comprising bisphosphonates and modified amino acid carriers” (EMISPHERE TECHNOLOGIES, INC., priority 2005, dated 2016), which cites them from elsewhere.

Structures can show the parent of a compound that is named as a salt.

Take `CCCCCN(C)CCC(O)(P(=O)(O)O)P(=O)(O)O` [Ibandronate sodium, 3-(N-methyl-N-pentyl)amino-1-hydroxypropane-1,1-diphosphonic acid, monosodium salt, monohydrate]: the “solubility in organic solvents” value (organic solvents) is “practically insoluble”. Further, the solubility in water entry (water) was “freely soluble”.
